pEC50, pIC50: −log10 of the molar value.

One assay has as its system HCV replicon cells. Description: HCV EC50 determination: replicon luciferase assay. The format is cell-based. Conditions: Hepatitis C virus, 72 h, 3 days incubation, luciferase activity. Here is the method: Replicon cells were seeded in 96-well plates at a density of 8×10^3 cells per well in 100 μL of culture medium, excluding Geneticin. Compound was serially diluted in 100% DMSO and then added to the cells at a 1:200 dilution, achieving a final concentration of 0.5% DMSO and a total volume of 200 μL. Plates were incubated at 37° C. for 3 days, after which culture medium was removed and cells were lysed in lysis buffer provided by Promega's luciferase assay system. Following the manufacturer's instruction, 100 μL of luciferase substrate was added to the lysed cells and luciferase activity was measured in a TopCount luminometer.
(In antiviral work, replicon cells carry a viral genome segment that copies itself.)

For the next assay, the target named is T1, HCV Δ21 NS5b polymerase (Hepatitis C virus genotype 1b, UniProt Q9WMX2).
T1 construct: 75 nM HCV Δ21 NS5b polymerase
Description: HCV IC50 determination: NS5b polymerase assay. The format is biochemical. Here is the method:
Assay Protocol: NS5b polymerase assay (40 μL) was assembled by adding 28 μL polymerase mixture (final concentration: 50 mM Tris-HCl at pH 7.5, 10 mM KCL, 5 mM MgCl2, 1 mM DTT, 10 mM EDTA, 4 ng/μL of RNA template, and 75 nM HCV Δ21 NS5b polymerase) to assay plates followed by 4 μL of compound dilution. The polymerase and compound were pre-incubated at 35° C. for 10 minute before the addition of 8 μL of nucleotide substrate mixture (33P-α-labeled competing nucleotide at KM and 0.5 mM of the remaining three nucleotides). The assay plates were covered and incubated at 35° C. for 90 mM. Reactions were then filtered through 96-well DEAE-81 filter plates via vacuum. The filter plates were then washed under vacuum with multiple volumes of 0.125 M NaHPO4, water, and ethanol to remove unincorporated label. Plates were then counted on TopCount to assess the level of product synthesis over background controls. The IC50 value is determined using Prism fitting program.

Usually pEC50 stands for the EC50 on a negative log10 scale, so that one unit is a factor of ten. Low values mean a large EC50, high ones a small EC50. `CC(C)(C)C(=O)SCCOP(=O)(OCCSC(=O)C(C)(C)C)OC[C@H]1O[C@@](C#N)(c2ccc3c(N)ncnn23)[C@](C)(O)[C@@H]1O` [Compound 6] had a pEC50 in the assay on HCV replicon cells of over 6.00.

In the assay on HCV replicon cells, `CO[C@@]1(c2ccc3c(N)ncnn23)O[C@H](CO)[C@@H](O)[C@@]1(C)O` [Compound 3] gave a negative-log EC50 (pEC50) of 4.00 to 5.00.

With `CO[C@@]1(c2ccc3c(N)ncnn23)O[C@H](CO)[C@@H](O)[C@H]1O` [Compound 12], the pEC50 with HCV replicon cells is 5.00 to 6.00.

`C[C@@]1(c2ccc3c(N)ncnn23)O[C@H](CO)[C@@H](O)[C@@]1(C)O` [Compound 4] showed a pEC50 with HCV replicon cells of 4.00 to 5.00.

By pIC50 is commonly meant the negative decadic logarithm of the IC50, by convention in mol/L. A high value points to a small IC50. With `C[C@@]1(O)[C@H](O)[C@@H](COP(=O)(O)O)O[C@@]1(C#N)c1ccc2c(N)ncnn12` [Compound 17], on HCV Δ21 NS5b polymerase, the pIC50 is over 6.00.

On to `C[C@@]1(O)[C@H](O)[C@@H](CO)OC1(O)c1ccc2c(N)ncnn12` (some centres unmarked) [Compound 2], for which the pEC50 in the assay with HCV replicon cells was 4.00 to 5.00.

Consider `C[C@@]1(O)[C@H](O)[C@@H](CO)O[C@@]1(C#N)c1ccc2c(N)ncnn12` [Compound 5], for which, in the assay on HCV replicon cells, the pEC50 was 4.00 to 5.00.

The compound `N#C[C@@]1(c2ccc3c(N)ncnn23)O[C@H](CO)[C@@H](O)[C@H]1O` [Compound 13] had a pEC50 in the assay with HCV replicon cells of 5.00 to 6.00.

For the origin of these results see patent US8853171B2, “1′-substituted carba-nucleoside analogs for antiviral treatment” (Gilead Sciences, Inc., priority 2008, dated 2014).
